# Test results reported in US20250101488A1, “RAPID DIAGNOSTIC DRY REAGENT TEST FOR ANTIBIOTIC RESISTANCE, AND METHODS OF USE AND METHODS OF MAKING THEREOF” (BioAmp Diagnostics, Inc., priority 2022, published 2025).
# “Also recorded” adds a separate entry of the source. Read-outs that look alike come from different tables or passages of the source.
# Key:
# [1] = Aqueous stability: non-selective hydrolysis of the probe, k(hydro); format: physicochemical; details: for Stability k(hydro): rate of non-selective hydrolysis of the probe and turn on of the DETECT system in the absence of its biomarker target
# Description: In order to find use in rapid diagnostic tests, ESBL-targeting probes that had at least the following favorable criteria were evaluated: • 1. Aqueous stability—measured through non-selective hydrolysis • a. Favorable criteria: k(hydro)<0.0062 mM/min • 2. Activity towards target β-lactamase target CTX-M-15—measured using recombinant β-lactamase • a. Favorable criteria: k(β-lactamase)>0.0568 mM/min • 3. Activity towards off-target lower generation β-lactamase (prioritizing the most common, TEM-1b) • a. Favorable criteria: k(TEM-1b)<0.02135 mM/min
# [2] = test system: cefotaxime (CTX) non-susceptible Gram-negative bacteria (GNB); test: DETECT assay with 96-bacterial isolate panel, ROC curve analysis against cefotaxime (CTX) phenotype; format: cell-based; details: 2.5×10^6 CFU/mL, DETECT score A405 nm 30 min minus 0 min; for Sensitivity (ROC Curve Analyzed with CTX): 96-bacterial isolate panel (47 CTX susceptible, 49 CTX non-susceptible); for AUC (95% CI) (ROC Curve Analyzed with CTX) / Specificity (ROC Curve Analyzed with CTX): 96-bacterial isolate panel
# From the text: A pool of 5 probe hits were each evaluated using a 96-bacterial isolate panel. In these studies, the 96-bacterial isolate panel was comprised of 47 cefotaxime (CTX) susceptible and 49 CTX non-susceptible, Gram-negative bacteria (GNB). As described above, CTX is a surrogate to detect ceftriaxone susceptibility and, therefore, was applied as the reference phenotype to group true positive, CTX-non-susceptible (include both CTX resistant and intermediate), and true negative, CTX-susceptible. Whole cell suspensions were prepared to yield an experimental concentration of 2.5×10^6 CFU/mL. In a 96-well plate, wells were prepared with all DETECT reagents, except for the targeting probe under investigation. Bacterial suspensions were transferred to the prepared wells of the plate and an initial timepoint was recorded (0 minutes) upon addition of a stock solution of a given probe (Sub-1, (7R)-7-(2-(1H-tetrazol-1-yl)acetamido)-8-oxo-3-((phenylthio)methyl)-5-thia-1-azabicyclo[4.2.0]oct-2-ene-2-carboxylic acid (BAD-5835), (7R)-7-(3-methylisoxazole-5-carboxamido)-8-oxo-3-((phenylthio)methyl)-5-thia-1-azabicyclo[4.2.0]oct-2-ene-2-carboxylic acid (BAD-1468), (7R)-8-oxo-3-((phenylthio)methyl)-7-(2-(pyridin-3-yl)acetamido)-5-thia-1-azabicyclo[4.2.0]oct-2-ene-2-carboxylic acid (BAD-5627), and (7R)-8-oxo-3-((phenylthio)methyl)-7-((S)-piperidine-3-carboxamido)-5-thia-1-azabicyclo[4.2.0]oct-2-ene-2-carboxylic acid (BAD-3462), (7R)-8-oxo-7-(2-phenoxyacetamido)-3-((phenylthio)methyl)-5-thia-1-azabicyclo[4.2.0]oct-2-ene-2-carboxylic acid (BAD-7465)). The absorbance of the wells was collected at 405 nm at 0 and 30 minutes, using a simple benchtop plate reader. The “DETECT Score” values were then calculated for each sample by subtracting the 405 nm absorbance recorded at the 0-minute timepoint from the 30-minute timepoint. Therefore, each sample was identified to have a unique DETECT score that was then can be group into positive and negative phenotype subgroups for threshold value determination via ROC curve analysis.
# [3] = cited from earlier work
# papain = target: T1, papain (Carica papaya, UniProt P00784); test: Dry reagent test strip, Study 1: papain activation by cysteine, reflectance; details: coating and drying at 37° C.; judged by reflectance of control strip
# T1 sequence (P00784 134-345): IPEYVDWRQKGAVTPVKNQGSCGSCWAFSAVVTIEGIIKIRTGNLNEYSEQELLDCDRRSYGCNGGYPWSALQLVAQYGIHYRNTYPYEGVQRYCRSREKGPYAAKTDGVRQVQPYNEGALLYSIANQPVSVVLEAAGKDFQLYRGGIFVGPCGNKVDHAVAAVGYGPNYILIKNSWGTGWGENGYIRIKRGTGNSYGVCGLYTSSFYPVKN
# Description: The second coating consisted of adding the water-soluble components (buffer salts and papain) and dried a second time in the oven at 37° C. […] Multiple formulation combinations of the DETECT components were examined to determine optimal change of reflectance over time.
# Excess solution is removed with glass rods and the paper placed in the oven and dried for 60 minutes at 37° C. In a dry room (relative humidity<20%), the dried filter paper is adhered onto a polyester film support. […] The order of applying the DETECT components typically includes adding the methanol soluble components first followed by the water-soluble components.
# Papain activity by cysteine activation was assessed by using two test strips where one received 100 μM cysteine (sample) while the other received buffer (control).
# In study 1, different formulations (i.e., different amounts of the papain and BAPA) were used to prepare strips to obtain the highest possible reflectance change when the yellow-colored signal is generated from activating papain (se FIG. 8) and measured with a Konica Minolta reflectance spectrophotometer. […]
# Study 1. […] The difference of percent reflectance (% Rscore) between sample and control is determined by subtracting the percent reflectance of the control strip from the sample strip for each time point to yield an increasing % Rscore over time (see FIG. 9A-B).
# recombinant CTX-M-15 = recombinant CTX-M-15 (Escherichia coli, UniProt Q9EXV5); test: Dry reagent test strip, Study 2: activation by recombinant CTX-M-15, reflectance; details: 1 or 4 nM CTX-M-15, read every 4 minutes for 20 minutes
# recombinant CTX-M-15, sequence (Q9EXV5 entry or part of it): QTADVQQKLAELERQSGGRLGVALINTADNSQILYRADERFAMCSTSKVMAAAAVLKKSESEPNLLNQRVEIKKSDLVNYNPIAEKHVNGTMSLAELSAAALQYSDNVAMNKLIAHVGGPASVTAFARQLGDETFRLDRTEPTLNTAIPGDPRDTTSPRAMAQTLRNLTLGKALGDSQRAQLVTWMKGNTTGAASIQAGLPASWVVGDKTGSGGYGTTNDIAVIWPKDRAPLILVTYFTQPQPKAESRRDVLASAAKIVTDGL
# Description: If the small molecule targeting probe was not severely affected by the fabrication process, then in the presence of CTX-M-15, it will be hydrolyzed and liberate the triggering unit to initiate the signaling cascade thus providing the yellow colorimetric response.
# The sample test strip received 1 or 4 nM of β-lactamase, while the control received buffer and the reflectance was monitored every 4 minutes for 20 minutes (see FIG. 8B).
Structure (SMILES),Stability k(hydro) [1],Sensitivity (ROC Curve Analyzed with CTX) [2],AUC (95% CI) (ROC Curve Analyzed with CTX) [2],Specificity (ROC Curve Analyzed with CTX) [2],extinction coefficient ([3]; absorbance wavelength of 405 nm),stability and promiscuity characteristics for rapidly detecting ceftriaxone non-susceptibility directly from urine [1],stability of the probe to the test strip fabrication process (papain),detection of recombinant CTX-M-15 on test strip (change in reflectance) (recombinant CTX-M-15),extinction coefficient ([3]; absorbance wavelength of 570 nm),fluorescent quantum yield (ϕ) ([3]; in water)
"Cc1cc(C(=O)N[C@@H]2C(=O)N3C(C(=O)O)=C(CSc4ccccc4)CSC23)on1 (stereo partly drawn) [BAD-1468, (7R)-7-(3-methylisoxazole-5-carboxamido)-8-oxo-3-((phenylthio)methyl)-5-thia-1-azabicyclo[4.2.0]oct-2-ene-2-carboxylic acid]",0.00198 M/min,0.8406,0.8846,0.8519,,,,,,
"O=C(Cc1cccnc1)N[C@@H]1C(=O)N2C(C(=O)O)=C(CSc3ccccc3)CSC12 (stereo partly drawn) [BAD-5627, (7R)-8-oxo-3-((phenylthio)methyl)-7-(2-(pyridin-3-yl)acetamido)-5-thia-1-azabicyclo[4.2.0]oct-2-ene-2-carboxylic acid]",0.00352 M/min,0.9275,0.9614,0.9259,,,,,,
Nc1ccc([N+](=O)[O-])cc1 [p-nitroaniline],,,,,"9,767 M-1 cm^−1",,,,,
"O=C(O)C1=C(CSc2ccccc2)CSC2[C@H](NC(=O)[C@H]3CCCNC3)C(=O)N12 (stereo partly drawn) [BAD-3462, (7R)-8-oxo-3-((phenylthio)methyl)-7-((S)-piperidine-3-carboxamido)-5-thia-1-azabicyclo[4.2.0]oct-2-ene-2-carboxylic acid]",0.00558 M/min,0.8116,0.8717,0.8519,,,,,,
"O=C(COc1ccccc1)N[C@@H]1C(=O)N2C(C(=O)O)=C(CSc3ccccc3)CSC12 (stereo partly drawn) [BAD-7465, (7R)-8-oxo-7-(2-phenoxyacetamido)-3-((phenylthio)methyl)-5-thia-1-azabicyclo[4.2.0]oct-2-ene-2-carboxylic acid]",0.00161 M/min,0.7143,0.7717,0.8077,,,,,,
"O=C(Cc1ccccc1)N[C@@H]1C(=O)N2C(C(=O)O)=C(CSc3ccccc3)CSC12 (stereo partly drawn) [Sub-1, (7R)-8-oxo-7-(2-phenylacetamido)-3-((phenylthio)methyl)-5-thia-1-azabicyclo[4.2.0]oct-2-ene-2-carboxylic acid, reference compound]",0.0062 M/min,0.9206,0.7717,0.8125,,not adequate,,,,
"O=C(Cn1cnnn1)N[C@@H]1C(=O)N2C(C(=O)O)=C(CSc3ccccc3)CSC12 (stereo partly drawn) [BAD-5835, (7R)-7-(2-(1H-tetrazol-1-yl)acetamido)-8-oxo-3-((phenylthio)methyl)-5-thia-1-azabicyclo[4.2.0]oct-2-ene-2-carboxylic acid]",0.0044 M/min,0.8823,0.9586,0.9259,,,did NOT decompose; also recorded: did not show any sign of degradation,retained its ability to detect the presence of CTX-M-15; also recorded: significant change in reflectance,,
O=c1ccc2nc3ccc(O)cc3oc-2c1 [resorufin],,,,,,,,,"56,000 M^1 cm^−1",0.74
